From publication PMC10178848, “Modulating fast skeletal muscle contraction protects skeletal muscle in animal models of Duchenne muscular dystrophy” (The Journal of Clinical Investigation, 2023)
Like-named read-outs stand apart in the source and are kept apart here.

Tested on: GRMD plasma proteins
Format: in vivo, dog
[1] = EDG-5506 treatment to GRMD baseline, Increased in GRMD

Compound: O=c1ccc(-c2cnc(OCC(F)(F)F)nc2)nn1Cc1cncc(F)c1 [EDG-5506]
- Change from GRMD Baseline (fraction): Tyrosine-protein kinase Yes (YES1) [1]: -0.1382 fraction
- Change from GRMD Baseline (fraction): Tyrosine-protein kinase ZAP-70 (ZAP70) [1]: -0.1508 fraction
- Change from GRMD Baseline (fraction): Tyrosine-protein phosphatase non-receptor type 1 (PTPN1) [1]: -0.1492 fraction
- Change from GRMD Baseline (fraction): Tyrosine-protein phosphatase non-receptor type 11 (PTPN11) [1]: -0.1298 fraction
- Change from GRMD Baseline (fraction): UMP-CMP kinase (CMPK1) [1]: -0.0444 fraction
- Change from GRMD Baseline (fraction): Ubiquitin carboxyl-terminal hydrolase 25 (USP25) [1]: -0.1723 fraction
- Change from GRMD Baseline (fraction): Ubiquitin carboxyl-terminal hydrolase isozyme L1 (UCHL1) [1]: -0.1135 fraction
- Change from GRMD Baseline (fraction): Ubiquitin-fold modifier 1 (UFM1) [1]: -0.238 fraction
- Change from GRMD Baseline (fraction): Vascular cell adhesion protein 1 (VCAM1) [1]: -0.0642 fraction
- Change from GRMD Baseline (fraction): Vitamin K-dependent protein C (PROC) [1]: -0.2124 fraction
- Change from GRMD Baseline (fraction): Vitronectin (VTN) [1]: -0.1269 fraction
- Change from GRMD Baseline (fraction): cAMP-dependent protein kinase catalytic subunit alpha (PRKACA) [1]: -0.4297 fraction
- Change from GRMD Baseline (fraction): dCTP pyrophosphatase 1 (DCTPP1) [1]: -0.2045 fraction
- Chitotriosidase-1 (CHIT1): Change from GRMD Baseline (fraction) [1]: -0.0569 fraction
- Chorionic somatomammotropin hormone (CSH1 CSH2): Change from GRMD Baseline (fraction) [1]: -0.0697 fraction
- Chromobox protein homolog 5 (CBX5): Change from GRMD Baseline (fraction) [1]: -0.0792 fraction
- Coagulation Factor X (F10): Change from GRMD Baseline (fraction) [1]: 0.1015 fraction
- Coagulation factor IX (F9): Change from GRMD Baseline (fraction) [1]: 0.0746 fraction
- Complement component 1 Q subcomponent-binding protein, mitochondrial (C1QBP): Change from GRMD Baseline (fraction) [1]: -0.0848 fraction
- Connective tissue growth factor (CTGF): Change from GRMD Baseline (fraction) [1]: -0.0649 fraction
- Cyclin-dependent kinase 1:G2/mitotic-specific cyclin-B1 complex (CDC2 CCNB1): Change from GRMD Baseline (fraction) [1]: -0.037 fraction
- Cyclin-dependent kinase 5:Cyclin-dependent kinase 5 activator 1 complex (CDK5 CDK5R1): Change from GRMD Baseline (fraction) [1]: -0.0717 fraction
- Cytokine receptor-like factor 1:Cardiotrophin-like cytokine factor 1 Complex (CRLF1 CLCF1): Change from GRMD Baseline (fraction) [1]: 0.1068 fraction
- Dual 3',5'-cyclic-AMP and -GMP phosphodiesterase 11A (PDE11A): Change from GRMD Baseline (fraction) [1]: 0.0578 fraction
- Ectodysplasin-A, secreted form (EDA): Change from GRMD Baseline (fraction) [1]: -0.0132 fraction
- Endothelial cell-selective adhesion molecule (ESAM): Change from GRMD Baseline (fraction) [1]: 0.0149 fraction
- Endothelial monocyte-activating polypeptide 2 (AIMP1): Change from GRMD Baseline (fraction) [1]: -0.1718 fraction
- Extracellular superoxide dismutase [Cu-Zn] (SOD3): Change from GRMD Baseline (fraction) [1]: -0.0256 fraction
- Ficolin-2 (FCN2): Change from GRMD Baseline (fraction) [1]: -0.1165 fraction
- Fms-related tyrosine kinase 3 ligand (FLT3LG): Change from GRMD Baseline (fraction) [1]: -0.0844 fraction
- Galactoside 3(4)-L-fucosyltransferase (FUT3): Change from GRMD Baseline (fraction) [1]: 0.0031 fraction
- Galectin-10 (CLC): Change from GRMD Baseline (fraction) [1]: 0.0351 fraction
- Glial fibrillary acidic protein (GFAP): Change from GRMD Baseline (fraction) [1]: -0.0103 fraction
- Glycylpeptide N-tetradecanoyltransferase 1 (NMT1): Change from GRMD Baseline (fraction) [1]: -0.1333 fraction
- Group 10 secretory phospholipase A2 (PLA2G10): Change from GRMD Baseline (fraction) [1]: 0.0049 fraction
- Growth hormone receptor (GHR): Change from GRMD Baseline (fraction) [1]: -0.0293 fraction
- Growth-regulated alpha protein (CXCL1): Change from GRMD Baseline (fraction) [1]: -0.0678 fraction
- Growth/differentiation factor 15 (GDF15): Change from GRMD Baseline (fraction) [1]: -0.0948 fraction
- Hepatocyte growth factor (HGF): Change from GRMD Baseline (fraction) [1]: -0.0495 fraction
- Hepcidin (HAMP): Change from GRMD Baseline (fraction) [1]: -0.0269 fraction
- Immunoglobulin M (IGHM IGJ IGK@ IGL@): Change from GRMD Baseline (fraction) [1]: -0.1429 fraction
- Importin subunit alpha-1 (KPNA2): Change from GRMD Baseline (fraction) [1]: -0.0896 fraction
- Induced myeloid leukemia cell differentiation protein Mcl-1 (MCL1): Change from GRMD Baseline (fraction) [1]: -0.0522 fraction
- Inorganic pyrophosphatase (PPA1): Change from GRMD Baseline (fraction) [1]: -0.2863 fraction
- Insulin-like growth factor-binding protein 7 (IGFBP7): Change from GRMD Baseline (fraction) [1]: -0.0264 fraction
- Integrin alpha-IIb: beta-3 complex (ITGA2B ITGB3): Change from GRMD Baseline (fraction) [1]: -0.0613 fraction
- Interleukin-4 (IL4): Change from GRMD Baseline (fraction) [1]: -0.0475 fraction
- Interleukin-6 receptor subunit beta (IL6ST): Change from GRMD Baseline (fraction) [1]: 0.0395 fraction
- Interleukin-8 (CXCL8): Change from GRMD Baseline (fraction) [1]: -0.0542 fraction
- Interleukin-10 receptor subunit beta (IL10RB): Change from GRMD Baseline (fraction) [1]: -0.0725 fraction
- Interleukin-17 receptor C (IL17RC): Change from GRMD Baseline (fraction) [1]: -0.0346 fraction
- Interleukin-18 receptor accessory protein (IL18RAP): Change from GRMD Baseline (fraction) [1]: -0.0372 fraction
- Interleukin-27 (IL27 EBI3): Change from GRMD Baseline (fraction) [1]: -0.0259 fraction
- Interleukin-36 beta (IL36B): Change from GRMD Baseline (fraction) [1]: -0.0479 fraction
- Killer cell immunoglobulin-like receptor 3DS1 (KIR3DS1): Change from GRMD Baseline (fraction) [1]: 0.0065 fraction
- Killer cell lectin-like receptor subfamily F member 1 (KLRF1): Change from GRMD Baseline (fraction) [1]: -0.0162 fraction
- Lamin-B1 (LMNB1): Change from GRMD Baseline (fraction) [1]: 0.0054 fraction
- Laminin (LAMA1 LAMB1 LAMC1): Change from GRMD Baseline (fraction) [1]: -0.1316 fraction
- Low-density lipoprotein receptor-related protein 1B (LRP1B): Change from GRMD Baseline (fraction) [1]: -0.0892 fraction
- Macrophage-stimulating protein receptor (MST1R): Change from GRMD Baseline (fraction) [1]: -0.0588 fraction
- Matrilin-3 (MATN3): Change from GRMD Baseline (fraction) [1]: -0.1231 fraction
- Matrilysin (MMP7): Change from GRMD Baseline (fraction) [1]: -0.0308 fraction
- N-terminal pro-BNP (NPPB): Change from GRMD Baseline (fraction) [1]: -0.0602 fraction
- NKG2D ligand 3 (ULBP3): Change from GRMD Baseline (fraction) [1]: -0.0822 fraction
- Neural cell adhesion molecule L1-like protein (CHL1): Change from GRMD Baseline (fraction) [1]: -0.0329 fraction
- Neurexophilin-1 (NXPH1): Change from GRMD Baseline (fraction) [1]: -0.0271 fraction
- OX-2 membrane glycoprotein (CD200): Change from GRMD Baseline (fraction) [1]: -0.0611 fraction
- Persephin (PSPN): Change from GRMD Baseline (fraction) [1]: -0.013 fraction
- Phosphatidylinositol 4,5-bisphosphate 3-kinase catalytic subunit gamma isoform (PIK3CG): Change from GRMD Baseline (fraction) [1]: -0.1006 fraction
- Pituitary adenylate cyclase-activating polypeptide 27 (ADCYAP1): Change from GRMD Baseline (fraction) [1]: 0.1436 fraction
- Platelet factor 4 (PF4): Change from GRMD Baseline (fraction) [1]: -0.1659 fraction
- Platelet glycoprotein VI (GP6): Change from GRMD Baseline (fraction) [1]: 0.0008 fraction
- Prolactin (PRL): Change from GRMD Baseline (fraction) [1]: -0.0751 fraction
- Prolactin receptor (PRLR): Change from GRMD Baseline (fraction) [1]: -0.064 fraction
- Proteasome subunit alpha type-6 (PSMA6): Change from GRMD Baseline (fraction) [1]: -0.0773 fraction
- Protein E7_HPV18 (Human-virus): Change from GRMD Baseline (fraction) [1]: -0.1102 fraction
- Proto-oncogene tyrosine-protein kinase receptor Ret (RET): Change from GRMD Baseline (fraction) [1]: -0.0388 fraction
- RNA-binding protein 39 (RBM39): Change from GRMD Baseline (fraction) [1]: -0.0705 fraction
- Ras GTPase-activating protein 1 (RASA1): Change from GRMD Baseline (fraction) [1]: -0.1536 fraction
- Ribosome maturation protein SBDS (SBDS): Change from GRMD Baseline (fraction) [1]: -0.2649 fraction
- SPARC-related modular calcium-binding protein 1 (SMOC1): Change from GRMD Baseline (fraction) [1]: -0.0553 fraction
- Secreted and transmembrane protein 1 (SECTM1): Change from GRMD Baseline (fraction) [1]: -0.0267 fraction
- Serine/threonine-protein kinase PAK 3 (PAK3): Change from GRMD Baseline (fraction) [1]: -0.1036 fraction
- Serine/threonine-protein kinase PAK 7 (PAK7): Change from GRMD Baseline (fraction) [1]: -0.037 fraction
- Serine/threonine-protein kinase pim-1 (PIM1): Change from GRMD Baseline (fraction) [1]: -0.0646 fraction
- Serum amyloid A-1 protein (SAA1): Change from GRMD Baseline (fraction) [1]: -0.1842 fraction
- Sialic acid-binding Ig-like lectin 7 (SIGLEC7): Change from GRMD Baseline (fraction) [1]: -0.0326 fraction
- Small ubiquitin-related modifier 3 (SUMO3): Change from GRMD Baseline (fraction) [1]: -0.2515 fraction
- Stromelysin-1 (MMP3): Change from GRMD Baseline (fraction) [1]: 0.0153 fraction
- Stromelysin-2 (MMP10): Change from GRMD Baseline (fraction) [1]: -0.0419 fraction
- Synaptosomal-associated protein 25 (SNAP25): Change from GRMD Baseline (fraction) [1]: 0.0795 fraction
- T-cell surface glycoprotein CD4 (CD4): Change from GRMD Baseline (fraction) [1]: -0.0326 fraction
- T-lymphocyte activation antigen CD86 (CD86): Change from GRMD Baseline (fraction) [1]: -0.0169 fraction
- TATA-box-binding protein (TBP): Change from GRMD Baseline (fraction) [1]: -0.0838 fraction
- Thyroxine-binding globulin (SERPINA7): Change from GRMD Baseline (fraction) [1]: 0.0123 fraction
- Transcription factor IIIB 90 kDa subunit (BRF1): Change from GRMD Baseline (fraction) [1]: -0.0779 fraction
- Tumor necrosis factor ligand superfamily member 18 (TNFSF18): Change from GRMD Baseline (fraction) [1]: -0.0886 fraction
- Tumor necrosis factor receptor superfamily member 13B (TNFRSF13B): Change from GRMD Baseline (fraction) [1]: -0.1006 fraction
- Tumor necrosis factor receptor superfamily member 13C (TNFRSF13C): Change from GRMD Baseline (fraction) [1]: 0.0816 fraction
- Tumor-associated calcium signal transducer 2 (TACSTD2): Change from GRMD Baseline (fraction) [1]: -0.0508 fraction
- Ubiquitin-conjugating enzyme E2 G2 (UBE2G2): Change from GRMD Baseline (fraction) [1]: 0.0044 fraction
- WNT1-inducible-signaling pathway protein 1 (WISP1): Change from GRMD Baseline (fraction) [1]: -0.2187 fraction
- WNT1-inducible-signaling pathway protein 3 (WISP3): Change from GRMD Baseline (fraction) [1]: -0.0425 fraction
- alpha-2-macroglobulin receptor-associated protein (LRPAP1): Change from GRMD Baseline (fraction) [1]: -0.1071 fraction
- cGMP-dependent 3',5'-cyclic phosphodiesterase (PDE2A): Change from GRMD Baseline (fraction) [1]: -0.1496 fraction
- Change from GRMD Baseline (fraction) (Endothelial cell-specific molecule 1 (ESM1), EDG-5506 treatment to GRMD baseline): -0.0233 fraction
- Change from GRMD Baseline (fraction) (Endothelial cell-specific molecule 1 (ESM1), Post-Treatment to GRMD baseline): -0.0289 fraction
- Change from GRMD Baseline (fraction) (Ephrin-B3 (EFNB3), EDG-5506 treatment to GRMD baseline): 0.1026 fraction
- Change from GRMD Baseline (fraction) (Ephrin-B3 (EFNB3), Post-Treatment to GRMD baseline): -0.0272 fraction
- Change from GRMD Baseline (fraction) (Eukaryotic translation initiation factor 4E-binding protein 2 (EIF4EBP2), EDG-5506 treatment to GRMD baseline): 0.16 fraction
- Change from GRMD Baseline (fraction) (Eukaryotic translation initiation factor 4E-binding protein 2 (EIF4EBP2), Post-Treatment to GRMD baseline): 0.0377 fraction
- common DMD plasma proteomic signature (GRMD plasma, Somascan): significantly reversed this common DMD signature
- Change from GRMD Baseline (fraction) (Glutathione S-transferase A3 (GSTA3), EDG-5506 treatment to GRMD baseline): 0.0601 fraction
- Change from GRMD Baseline (fraction) (Glutathione S-transferase A3 (GSTA3), Post-Treatment to GRMD baseline): 1.476 fraction
- Change from GRMD Baseline (fraction) (Heparan-sulfate 6-O-sulfotransferase 1 (HS6ST1), EDG-5506 treatment to GRMD baseline): 0.0701 fraction
- Change from GRMD Baseline (fraction) (Heparan-sulfate 6-O-sulfotransferase 1 (HS6ST1), Post-Treatment to GRMD baseline): -0.1313 fraction
- Change from GRMD Baseline (fraction) (Histone H3.1 (HIST1H3A), EDG-5506 treatment to GRMD baseline): 0.1658 fraction
- Change from GRMD Baseline (fraction) (Histone H3.1 (HIST1H3A), Post-Treatment to GRMD baseline): 0.0723 fraction
- Change from GRMD Baseline (fraction) (Human Chorionic Gonadotropin (CGA CGB), EDG-5506 treatment to GRMD baseline): 0.1653 fraction
